Data reported in patent US10329289B2, “6,7-dihydro-5H-pyrrolo[3,4-B]pyridin-5-one allosteric modulators of the M4 muscarinic acetylcholine receptor” (Merck Sharp & Dohme Corp., priority 2015, dated 2019).

Target: T1, human M4 muscarinic acetylcholine receptor (Homo sapiens, UniProt P08173)
T1 construct: expressed in transfected cells; host or cells: CHO-K1
T1 sequence (P08173 1-479): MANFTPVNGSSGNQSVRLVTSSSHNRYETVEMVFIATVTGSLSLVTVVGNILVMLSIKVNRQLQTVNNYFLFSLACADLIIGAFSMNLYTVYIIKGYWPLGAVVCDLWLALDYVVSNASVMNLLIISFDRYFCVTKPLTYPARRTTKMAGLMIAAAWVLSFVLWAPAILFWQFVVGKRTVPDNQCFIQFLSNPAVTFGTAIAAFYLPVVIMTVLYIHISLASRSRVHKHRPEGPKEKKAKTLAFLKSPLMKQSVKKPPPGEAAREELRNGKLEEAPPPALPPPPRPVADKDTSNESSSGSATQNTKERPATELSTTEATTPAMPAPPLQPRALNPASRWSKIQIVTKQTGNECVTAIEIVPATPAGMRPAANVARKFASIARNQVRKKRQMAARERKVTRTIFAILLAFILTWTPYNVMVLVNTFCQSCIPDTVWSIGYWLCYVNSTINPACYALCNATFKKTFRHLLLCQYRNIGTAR
Assay: human FLIPR-based M4 PAM assay (Ca2+ mobilization, CHO-K1 cells with human M4 receptor and Gαqi5)
Assay type: cell-based
Settings: acetylcholine at 20% of maximum response, read-out: M4 PAM IP
Procedure: In a typical experiment the M4 muscarinic acetylcholine receptor modulating activity of the compounds of the present invention was determined in accordance with the following experimental method. CHO-K1 cells stably transfected with human M4 receptor and chimeric G-protein Gαqi5 (Coward P, et al., Analytical Biochemistry, 270:242-248 (1999)) are thawed from liquid N2 storage, resuspended in growth medium, plated in black, clear bottom 384 well plates, and incubated 16-20 hours at 37° C., 5% CO2. On the day of assay, growth medium is removed, the cells are washed 2 times with wash buffer, and cells are incubated in dye loading buffer at 37° C., 5% CO2 for ˜1 hour. […] Next, 10 uL of acetylcholine is added (final concentration calculated so as to achieve 20% of the maximum acetycholine response), and the fluorescence reading is continued for 3.5 min. In some cases, a third addition of acetylcholine (final concentration calculated to achieve 70% of the maximal acetylcholine response) is performed. The resulting dose response curves are fit to a 4 parameter logistic equation and the final result is determined as the inflection point (IP) of the curve
CHO-K1 cells stably transfected with human M4 receptor and chimeric G-protein Gαqi5 are thawed from liquid N2 storage, resuspended in growth medium, plated in black, clear bottom 384 well plates, and incubated 16-20 hours at 37° C., 5% CO2.
On the day of assay, growth medium is removed, the cells are washed 2 times with wash buffer, and cells are incubated in dye loading buffer at 37° C., 5% CO2 for ˜1 h. […] Next, 10 uL of acetylcholine is added (final concentration calculated so as to achieve 20% of the maximum acetycholine response), and the fluorescence reading is continued for 3.5 min. In some cases, a third addition of acetylcholine (final concentration calculated to achieve 70% of the maximal acetylcholine response) is performed.

SMILES | EC50 [nM]
Cc1cc2c(nc1N1CCC(Oc3cnc4c(c3)CC[C@H]4O)CC1)CNC2=O (single isomer, unassigned) [Example 324D] | 682
Cc1c(N2CCC(Oc3ccc4c(c3)COC4)CC2)nc2c(c1C)C(=O)N(C)[C@H]2CO (single isomer, unassigned) [Example 337B] | 867
Cc1c(N2CCC(Oc3ccc4c(c3)COCC4)CC2)nc2c(c1C)C(=O)N(C)[C@H]2CO (single isomer, unassigned) [Example 337D] | 613
CCc1cc2c(nc1N1CC[C@@H](OCC3(C)CC3)C(F)(F)C1)CNC2=O (single isomer, unassigned) [Example 374A] | 416
COCCOc1ccc(O[C@H]2CCN(c3nc4c(cc3C)C(=O)NC4)C[C@H]2F)cn1 (stereo in doubt) [Example 61, 2-((3R,4S)-3-fluoro-4-((6-(2-methoxyethoxy)pyridin-3-yl)oxy)piperidin-1-yl)-3-methyl-6,7-dihydro-5H-pyrrolo[3,4-b]pyridin-5-one] | 135
Cc1cc2c(nc1N1CCC(Oc3ccc4c(cnn4C)c3)CC1)CNC2=O [Example 4, 3-methyl-2-(4-((1-methyl-1H-indazol-5-yl)oxy)piperidin-1-yl)-6,7-dihydro-5H-pyrrolo[3,4-b]pyridin-5-one] | 49
Cc1cc2c(nc1N1CCC(OC(F)F)CC1)CNC2=O [Example 4A, 2-(4-(difluoromethoxy)piperidin-1-yl)-3-methyl-6,7-dihydro-5H-pyrrolo[3,4-b]pyridin-5-one] | 2770
CCc1cc2c(nc1N1CC[C@@H](Oc3ccc4c(cnn4C)c3)[C@@H](F)C1)CNC2=O [Example 5A, 3-ethyl-2-((3S,4R)-3-fluoro-4-((1-methyl-1H-indazol-5-yl)oxy)piperidin-1-yl)-6,7-dihydro-5H-pyrrolo[3,4-b]pyridin-5-one] | 121
CCc1cc2c(nc1N1CC[C@H](OCC3(C)CC3)[C@@H](F)C1)CNC2=O [Example 6A, 3-ethyl-2-((3S,4S)-3-fluoro-4-((1-methylcyclopropyl)methoxy)piperidin-1-yl)-6,7-dihydro-5H-pyrrolo[3,4-b]pyridin-5-one] | 150
Cc1cc2c(nc1N1CCC(OC[C@@]3(C)CC3(F)F)CC1)CNC2=O [Example 8A, (R)-2-(4-((2,2-difluoro-1-methylcyclopropyl)methoxy)piperidin-1-yl)-3-methyl-6,7-dihydro-5H-pyrrolo[3,4-b]pyridin-5-one] | 87
Cc1cc2c(nc1N1CCC(OC[C@]3(C)CC3(F)F)CC1)CNC2=O [Example 8B, (S)-2-(4-((2,2-difluoro-1-methylcyclopropyl)methoxy)piperidin-1-yl)-3-methyl-6,7-dihydro-5H-pyrrolo[3,4-b]pyridin-5-one] | 501
Cc1cc2c(nc1N1CCC(OCC3CC3)CC1)CNC2=O [Example 9, 2-(4-(cyclopropylmethoxy)piperidin-1-yl)-3-methyl-6,7-dihydro-5H-pyrrolo[3,4-b]pyridin-5-one] | 83
Cc1cc2c(nc1N1CCC(Oc3ccc4c(c3)C(=O)N(C3CC3)C4)CC1)CNC2=O [Example 10, 2-(4-((2-cyclopropyl-3-oxoisoindolin-5-yl)oxy)piperidin-1-yl)-3-methyl-6,7-dihydro-5H-pyrrolo[3,4-b]pyridin-5-one] | 179
Cc1cc2c(nc1N1CCC(Oc3cccc(C#N)c3)CC1)C(C)N(C)C2=O (centres unmarked) [Example 13, 3-((1-(3,6,7-trimethyl-5-oxo-6,7-dihydro-5H-pyrrolo[3,4-b]pyridin-2-yl)piperidin-4-yl)oxy)benzonitrile] | 174
Cc1cc2c(nc1N1CCC(Oc3ccc4[nH]ncc4c3)CC1)C(C)N(C)C2=O (centres unmarked) [Example 14, 2-(4-((1H-indazol-5-yl)oxy)piperidin-1-yl)-3,6,7-trimethyl-6,7-dihydro-5H-pyrrolo[3,4-b]pyridin-5-one] | 52
Cc1cc2c(nc1N1CCC(Oc3cccc(C#N)c3)CC1)C(C)(C)N(C)C2=O [Example 15, 3-((1-(3,6,7,7-tetramethyl-5-oxo-6,7-dihydro-5H-pyrrolo[3,4-b]pyridin-2-yl)piperidin-4-yl)oxy)benzonitrile] | 1990
COc1ccc(OC2CCN(c3nc4c(cc3C)C(=O)N(C)C4C)CC2)cn1 (centres unmarked) [Example 16, 2-(4-((6-methoxypyridin-3-yl)oxy)piperidin-1-yl)-3,6,7-trimethyl-6,7-dihydro-5H-pyrrolo[3,4-b]pyridin-5-one] | 81
COc1ccc(OC2CCN(c3nc4c(cc3C)C(=O)N(C)C4(C)C)CC2)cn1 [Example 17, 2-(4-((6-methoxypyridin-3-yl)oxy)piperidin-1-yl)-3,6,7,7-tetramethyl-6,7-dihydro-5H-pyrrolo[3,4-b]pyridin-5-one] | 1170
Cc1cc2c(nc1N1CC[C@H](Oc3cccc(C#N)c3)[C@H](F)C1)CNC2=O [Example 19, 3-(((3R,4S)-3-fluoro-1-(3-methyl-5-oxo-6,7-dihydro-5H-pyrrolo[3,4-b]pyridin-2-yl)piperidin-4-yl)oxy)benzonitrile] | 57
Cc1cc2c(nc1N1CC[C@H](Oc3cccc(C#N)c3)[C@@H](F)C1)CNC2=O [Example 20, 3-(((3S,4S)-3-fluoro-1-(3-methyl-5-oxo-6,7-dihydro-5H-pyrrolo[3,4-b]pyridin-2-yl)piperidin-4-yl)oxy)benzonitrile] | 83
Cc1cc2c(nc1N1CC[C@@H](Oc3cccc(C#N)c3)[C@H](F)C1)CNC2=O [Example 21, 3-(((3R,4R)-3-fluoro-1-(3-methyl-5-oxo-6,7-dihydro-5H-pyrrolo[3,4-b]pyridin-2-yl)piperidin-4-yl)oxy)benzonitrile] | 50

These reach a lower EC50. Values come first.

EC50 [nM] | SMILES
47 | Cc1c(N2CCC(OC[C@@]3(C)CC3(F)F)CC2)nc2c(c1C)C(=O)NC2 (single isomer, unassigned) [Example 329A]
20 | Cc1c(N2CCC(Oc3ccc4c(c3)COC4)CC2)nc2c(c1C)C(=O)N(C)[C@@H]2CO (single isomer, unassigned) [Example 337A]
42 | Cc1c(N2CCC(Oc3ccc4c(c3)COCC4)CC2)nc2c(c1C)C(=O)N(C)[C@@H]2CO (single isomer, unassigned) [Example 337C]
45 | CCc1cc2c(nc1N1CC[C@H](OCC3(C)CC3)C(F)(F)C1)CNC2=O (single isomer, unassigned) [Example 374B]
27 | COc1ccc(OC2CCN(c3nc4c(cc3C)C(=O)NC4)CC2)cn1 [Example 1, 2-(4-((6-methoxypyridin-3-yl)oxy)piperidin-1-yl)-3-methyl-6,7-dihydro-5H-pyrrolo[3,4-b]pyridin-5-one]
25 | Cc1cc2c(nc1N1CCC(Oc3cccc(C#N)c3)CC1)CNC2=O [Example 3, 3-((1-(3-methyl-5-oxo-6,7-dihydro-5H-pyrrolo[3,4-b]pyridin-2-yl)piperidin-4-yl)oxy)benzonitrile]
21 | Cc1cc2c(nc1N1CCC(Oc3ccccc3)CC1)CNC2=O [Example 5, 3-methyl-2-(4-phenoxypiperidin-1-yl)-6,7-dihydro-5H-pyrrolo[3,4-b]pyridin-5-one]
14 | Cc1cc2c(nc1N1CC[C@@H](Oc3ccc4[nH]ncc4c3)[C@@H](F)C1)CNC2=O [Example 8, 2-((3S,4R)-4-((1H-indazol-5-yl)oxy)-3-fluoropiperidin-1-yl)-3-methyl-6,7-dihydro-5H-pyrrolo[3,4-b]pyridin-5-one]
38 | Cc1cc2c(nc1N1CCC(Oc3cccc(C#N)c3)CC1)CN(C)C2=O [Example 11, 3-((1-(3,6-dimethyl-5-oxo-6,7-dihydro-5H-pyrrolo[3,4-b]pyridin-2-yl)piperidin-4-yl)oxy)benzonitrile]
16 | Cc1cc2c(nc1N1CCC(Oc3ccc4[nH]ncc4c3)CC1)CN(C)C2=O [Example 12, 2-(4-((1H-indazol-5-yl)oxy)piperidin-1-yl)-3,6-dimethyl-6,7-dihydro-5H-pyrrolo[3,4-b]pyridin-5-one]
36 | COc1ccc(OC2CCN(c3nc4c(cc3C)C(=O)N(C)C4)CC2)cn1 [Example 18, 2-(4-((6-methoxypyridin-3-yl)oxy)piperidin-1-yl)-3,6-dimethyl-6,7-dihydro-5H-pyrrolo[3,4-b]pyridin-5-one]
